Key:
Assay in all cases: relative viability (nuclei count vs DMSO), 5 days (fraction); higher = more cells survive
[1] = compound: CC(C)C[C@H](NC(=O)[C@H](CCc1ccccc1)NC(=O)CN1CCOCC1)C(=O)N[C@@H](Cc1ccccc1)C(=O)N[C@@H](CC(C)C)C(=O)[C@@]1(C)CO1 [Carfilzomib] + C[C@@H](Oc1cc(-c2cnn(C3CCNCC3)c2)cnc1N)c1c(Cl)ccc(F)c1Cl [Crizotinib] (partner 1 µM)
Outline: (§1)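 One day after seeding in 1536-well plates, lung cancer cell lines were dosed by pin tool. Dosing was either single-drug or a fixed anchor-drug dose plus five library-drug doses (not always all listed) in √10 steps. After 5 days, nuclei were stained in one fix-and-stain step and counted on 4× images, and relative viability is the nuclei count of treated wells over that of vehicle wells, given as the median of duplicate plates.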

[2] = compound: CC(C)C[C@H](NC(=O)[C@H](CCc1ccccc1)NC(=O)CN1CCOCC1)C(=O)N[C@@H](Cc1ccccc1)C(=O)N[C@@H](CC(C)C)C(=O)[C@@]1(C)CO1 [Carfilzomib] + Nc1ncn([C@H]2C[C@H](O)[C@@H](CO)O2)c(=O)n1 [Decitabine] (partner 2 µM)
Outline: as §1

[3] = compound: CC(C)C[C@H](NC(=O)[C@H](CCc1ccccc1)NC(=O)CN1CCOCC1)C(=O)N[C@@H](Cc1ccccc1)C(=O)N[C@@H](CC(C)C)C(=O)[C@@]1(C)CO1 [Carfilzomib] + COc1cccc2cc(-c3nc([C@H]4CC[C@H](C(=O)O)CC4)n4ncnc(N)c34)[nH]c12 [OSI-027] (partner 0.5 µM)
Outline: as §1

[4] = compound: O=C(c1cc(Cc2n[nH]c(=O)c3ccccc23)ccc1F)N1CCN(C(=O)C2CC2)CC1 [Olaparib] + Cc1cc(Nc2cc(N3CCN(C)CC3)nc(Sc3ccc(NC(=O)C4CC4)cc3)n2)n[nH]1 [Tozasertib] (partner 0.1 µM)
Outline: as §1

Row | Cell Line | relative viability ([1]; first compound 0.001 µM) | relative viability ([1]; first compound 0.003162 µM) | relative viability ([1]; first compound 0.01 µM) | relative viability ([1]; first compound 0.03162 µM) | relative viability ([1]; first compound 0.1 µM) | relative viability ([2]; first compound 0.001 µM) | relative viability ([2]; first compound 0.003162 µM) | relative viability ([2]; first compound 0.01 µM) | relative viability ([2]; first compound 0.03162 µM) | relative viability ([2]; first compound 0.1 µM) | relative viability ([3]; first compound 0.001 µM) | relative viability ([3]; first compound 0.003162 µM) | relative viability ([3]; first compound 0.01 µM) | relative viability ([3]; first compound 0.03162 µM) | relative viability ([3]; first compound 0.1 µM) | relative viability ([4]; first compound 0.08 µM) | relative viability ([4]; first compound 0.253 µM) | relative viability ([4]; first compound 2.53 µM) | relative viability ([4]; first compound 8 µM)
1 | PC-3 [JPC-3] | 1.01 | 0.99 | 0.985 | 0.828 | 0.376 | 0.832 | 0.879 | 0.89 | 0.64 | 0.301 | 0.801 | 0.775 | 0.813 | 0.755 | 0.352 | 0.913 | 0.855 | 0.946 | 0.843
2 | PC-14 | 0.939 | 0.934 | 0.9 | 0.326 | 0.0895 | 0.198 | 0.273 | 0.23 | 0.0558 | 0.0667 | 0.904 | 0.962 | 0.603 | 0.0409 | 0.0529 | 0.602 | 0.557 | 0.536 | 0.419
3 | RERF-LC-KJ | 0.899 | 0.801 | 0.86 | 0.78 | 0.359 | 0.744 | 0.721 | 0.807 | 0.422 | 0.207 | 0.551 | 0.525 | 0.72 | 0.322 | 0.221 | 0.531 | 0.453 | 0.505 | 0.475
4 | SK-LU-1 | 0.885 | 1.02 | 0.807 | 0.575 | 0.152 | 0.591 | 0.713 | 0.625 | 0.262 | 0.23 | 0.36 | 0.362 | 0.399 | 0.102 | 0.138 | 0.355 | 0.323 | 0.335 | 0.247
5 | SK-MES-1 | 1.04 | 1.05 | 1.09 | 0.752 | 0.169 | 0.385 | 0.375 | 0.437 | 0.356 | 0.181 | 0.637 | 0.632 | 0.652 | 0.336 | 0.145 | 0.962 | 0.828 | 0.818 | 0.562
6 | SW 1573 | 0.887 | 0.864 | 0.793 | 0.261 | 0.0628 | 0.551 | 0.52 | 0.297 | 0.0743 | 0.0554 | 0.717 | 0.771 | 0.403 | 0.0525 | 0.0647 | 0.148 | 0.165 | 0.234 | 0.172
7 | UMC-11 | 0.613 | 0.627 | 0.627 | 0.554 | 0.1 | 0.603 | 0.609 | 0.54 | 0.819 | 0.459 | 0.503 | 0.474 | 0.496 | 0.426 | 0.211 | 0.231 | 0.208 | 0.235 | 0.253

Source: the supplement of paper PMC10307832
